Test results reported in ChEMBL document CHEMBL3868641, “Discovery, characterization and biological evaluation of a novel (R)-4,4-difluoropiperidine scaffold as dopamine receptor 4 (D4R) antagonists” (Bioorg Med Chem Lett, 2016).
pIC50, pKi: −log10 of the molar value.

Legend:
[1] = Displacement of [3H]Spiperone from recombinant human Dopamine D4.4 receptor expressed in CHO-K1 cell membranes after 120 mins
CHO-K1 = assay: Displacement of [3H] Spiperone from recombinant human Dopamine D4.4 receptor expressed in CHO-K1 cell membranes at 0.1 uM after 120 mins relative to control
[2] = Intrinsic clearance in rat liver microsomes by HPLC/MS analysis; type: ADME; conditions: read-out: CLH
[3] = Intrinsic clearance in human liver microsomes by HPLC/MS analysis; type: ADME; conditions: read-out: CLH
[4] = Unbound fraction in rat plasma by HPLC/MS based equilibrium dialysis method; type: ADME, cell-free
[5] = Unbound fraction in human plasma by HPLC/MS based equilibrium dialysis method; type: ADME, cell-free
[6] = Plasma concentration in rat at 0.25 mg/kg, iv administered through cassette dosing after 0.25 hrs by LC/MS/MS analysis; type: ADME, organism-based
[7] = Displacement of [3H]Spiperone from recombinant human Dopamine D4.4 receptor expressed in CHO-K1 cell membranes at 10 uM after 120 mins relative to control
[8] = Drug uptake in rat brain at 0.25 mg/kg, iv administered through cassette dosing after 0.25 hrs by LC/MS/MS analysis; type: ADME, organism-based; conditions: for concentration at 0.25 h: brain, read-out: Drug uptake
[9] = Ratio of drug level in brain to plasma in rat at 0.25 mg/kg, iv administered through cassette dosing after 0.25 hrs by LC/MS/MS analysis; type: ADME, organism-based
[10] = Displacement of [3H] Spiperone from recombinant human Dopamine D4.4 receptor expressed in CHO-K1 cell membranes at 1 uM after 120 mins relative to control
[11] = target: D(1A) dopamine receptor (Homo sapiens) (UniProt P21728); assay: Displacement of [3H]SCH-23390 from recombinant human Dopamine D1 receptor expressed in CHO cell membranes at 10 uM after 120 mins relative to control
D(1A) dopamine receptor (Homo sapiens), sequence (P21728 whole entry): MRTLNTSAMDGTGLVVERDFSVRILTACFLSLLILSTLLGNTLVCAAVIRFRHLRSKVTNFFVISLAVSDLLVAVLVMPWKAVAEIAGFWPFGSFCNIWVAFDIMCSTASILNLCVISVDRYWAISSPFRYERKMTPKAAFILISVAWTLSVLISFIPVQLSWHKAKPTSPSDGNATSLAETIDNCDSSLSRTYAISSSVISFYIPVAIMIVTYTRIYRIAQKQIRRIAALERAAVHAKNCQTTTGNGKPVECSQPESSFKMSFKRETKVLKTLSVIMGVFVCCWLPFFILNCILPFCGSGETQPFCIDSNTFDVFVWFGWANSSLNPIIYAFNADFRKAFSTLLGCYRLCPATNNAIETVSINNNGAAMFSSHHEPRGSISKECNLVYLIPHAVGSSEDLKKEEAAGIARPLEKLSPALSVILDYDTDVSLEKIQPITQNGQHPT

[12] = target: D(2) dopamine receptor (Homo sapiens) (UniProt P14416); assay: Displacement of [3H]Spiperone from recombinant human Dopamine D2L receptor expressed in CHO cell membranes at 10 uM after 120 mins relative to control
D(2) dopamine receptor (Homo sapiens), sequence (P14416 whole entry): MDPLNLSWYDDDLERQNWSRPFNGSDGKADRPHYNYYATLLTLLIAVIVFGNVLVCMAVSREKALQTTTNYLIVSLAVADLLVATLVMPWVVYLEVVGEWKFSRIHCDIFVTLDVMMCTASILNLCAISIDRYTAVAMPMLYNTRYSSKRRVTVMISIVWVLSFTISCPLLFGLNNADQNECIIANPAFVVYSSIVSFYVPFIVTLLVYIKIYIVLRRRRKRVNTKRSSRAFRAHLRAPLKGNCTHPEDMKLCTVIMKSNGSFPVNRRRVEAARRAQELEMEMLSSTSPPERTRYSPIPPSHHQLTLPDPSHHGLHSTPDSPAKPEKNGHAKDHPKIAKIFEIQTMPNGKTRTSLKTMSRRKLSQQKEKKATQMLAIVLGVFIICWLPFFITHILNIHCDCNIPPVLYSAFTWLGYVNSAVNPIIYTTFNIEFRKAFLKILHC

[13] = target: D(1B) dopamine receptor (Homo sapiens) (UniProt P21918); assay: Displacement of [3H]SCH-23390 from recombinant human Dopamine D5 receptor expressed in CHO cell membranes at 10 uM after 120 mins relative to control
D(1B) dopamine receptor (Homo sapiens), sequence (P21918 whole entry): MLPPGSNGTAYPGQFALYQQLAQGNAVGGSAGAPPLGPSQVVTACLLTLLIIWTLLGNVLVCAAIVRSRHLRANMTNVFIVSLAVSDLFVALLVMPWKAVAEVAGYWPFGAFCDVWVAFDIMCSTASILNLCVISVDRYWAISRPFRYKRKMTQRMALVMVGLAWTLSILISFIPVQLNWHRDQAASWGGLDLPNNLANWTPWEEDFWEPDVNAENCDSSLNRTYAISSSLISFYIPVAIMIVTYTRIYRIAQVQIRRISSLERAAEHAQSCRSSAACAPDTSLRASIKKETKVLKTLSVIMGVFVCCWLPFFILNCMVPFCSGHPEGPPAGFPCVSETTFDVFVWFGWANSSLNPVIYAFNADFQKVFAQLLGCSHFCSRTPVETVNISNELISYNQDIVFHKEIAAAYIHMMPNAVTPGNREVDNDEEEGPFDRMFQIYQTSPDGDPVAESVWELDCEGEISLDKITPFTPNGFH

[14] = target: D(2) dopamine receptor (Homo sapiens) (UniProt P14416); assay: Displacement of [3H]Spiperone from recombinant human Dopamine D2S receptor expressed in CHO cell membranes at 10 uM after 120 mins relative to control
[15] = target: D(3) dopamine receptor (Homo sapiens) (UniProt P35462); assay: Displacement of [3H]Spiperone from recombinant human Dopamine D3 receptor expressed in CHO cell membranes at 10 uM after 120 mins relative to control
D(3) dopamine receptor (Homo sapiens), sequence (P35462 whole entry): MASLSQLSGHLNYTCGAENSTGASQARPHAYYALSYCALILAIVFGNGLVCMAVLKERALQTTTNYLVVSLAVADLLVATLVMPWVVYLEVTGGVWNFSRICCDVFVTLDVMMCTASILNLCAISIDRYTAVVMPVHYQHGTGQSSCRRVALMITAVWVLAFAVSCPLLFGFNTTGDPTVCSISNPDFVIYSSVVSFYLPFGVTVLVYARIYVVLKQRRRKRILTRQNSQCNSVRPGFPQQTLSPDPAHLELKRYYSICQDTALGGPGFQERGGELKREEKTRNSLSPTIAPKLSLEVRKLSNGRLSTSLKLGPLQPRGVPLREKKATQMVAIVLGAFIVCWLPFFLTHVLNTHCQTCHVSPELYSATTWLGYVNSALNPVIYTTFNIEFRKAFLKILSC

SMILES | pIC50 [1] | pKi [1] | inhibition [7] [%] | further results
COc1ccc2c(CN3CCC(F)(F)[C@@H](CCc4ccc(F)cc4)C3)c[nH]c2c1 | 6.21 | 6.77 | – | inhibition (CHO-K1): 64%
Fc1ccc2[nH]cc(CN3CCC(F)(F)[C@@H](CCc4ccccc4)C3)c2c1 | – | – | 55 | CLint scaled [2]: 1910 mL/min/kg; CLint scaled [3]: 70.5 mL/min/kg; fraction unbound [4]: 0.001; fraction unbound [5]: 0.001; concentration at 0.25 h [6]: 25.3 ng/mL; Drug uptake ([8]; in vivo, 0.25 h, BLD = below limit of detection): Bld
Fc1ccccc1CC[C@@H]1CN(Cc2c[nH]c3cc(Cl)ccc23)CCC1(F)F | 6.72 | 7.28 | – | CLint scaled [2]: 1300 mL/min/kg; CLint scaled [3]: 156 mL/min/kg; Kp at 0.25 h [9]: 0.4; fraction unbound [4]: 0.002; fraction unbound [5]: 0.005; concentration at 0.25 h [6]: 54.8 ng/mL; inhibition [10]: 84%; concentration at 0.25 h [8]: 23.5 ng/g
Fc1ccc(CC[C@H]2CN(Cc3c[nH]c4cc(F)ccc34)CCC2(F)F)cc1 | 6.49 | 7.05 | – | inhibition [11]: < 50%; inhibition [12]: < 50%; inhibition [13]: < 50%; inhibition [14]: < 50%; inhibition [15]: 52%; inhibition [10]: 75%
Fc1ccc2c(CN3CCC(F)(F)[C@H](CCc4ccccc4)C3)c[nH]c2c1 | 7.64 | 8.20 | – | CLint scaled [2]: 2490 mL/min/kg; CLint scaled [3]: 111 mL/min/kg; Kp at 0.25 h [9]: 3.5; fraction unbound [4]: 0.014; fraction unbound [5]: 0.001; concentration at 0.25 h [6]: 28.6 ng/mL; inhibition [10]: 79%; concentration at 0.25 h [8]: 100 ng/g
FC1(F)CCN(Cc2c[nH]c3cc(Cl)ccc23)C[C@H]1CCc1ccccc1 | 7.19 | 7.75 | – | inhibition [10]: 59%
Cc1ccc(CN2CCC(F)(F)[C@H](CCc3ccccc3)C2)cc1C | 6.64 | 7.20 | 77 | CLint scaled [2]: 1670 mL/min/kg; CLint scaled [3]: 108 mL/min/kg; Kp at 0.25 h [9]: 2.1; fraction unbound [4]: 0.004; fraction unbound [5]: 0.005; concentration at 0.25 h [6]: 44.4 ng/mL; concentration at 0.25 h [8]: 93.7 ng/g
Fc1ccc2c(CN3CCC(F)(F)[C@H](CCc4ccccc4F)C3)c[nH]c2c1 | 7.85 | 8.41 | – | inhibition [11]: < 50%; inhibition [12]: 51%; inhibition [13]: < 50%; inhibition [14]: < 50%; Kp at 0.25 h [9]: 1.3; fraction unbound [4]: 0.05; fraction unbound [5]: 0.005; inhibition [15]: 65%; inhibition (CHO-K1): 85%; concentration at 0.25 h [6]: 30.4 ng/mL; concentration at 0.25 h [8]: 38.9 ng/g
COc1cccc(CCC2CN(Cc3c[nH]c4cc(F)ccc34)CCC2(F)F)c1 (racemic) | 5.81 | 6.37 | 88 | –
FC1(F)CCN(Cc2ccc3ncccc3c2)CC1CCc1ccccc1 (racemic) | 5.87 | 6.42 | 87 | –
Fc1cccc(CCC2CN(Cc3c[nH]c4cc(F)ccc34)CCC2(F)F)c1 (racemic) | 7.11 | 7.68 | 92 | inhibition [11]: < 50%; inhibition [12]: < 50%; inhibition [13]: < 50%; inhibition [14]: < 50%; inhibition [15]: < 50%
COc1ccc(CCC2CN(Cc3c[nH]c4cc(Cl)ccc34)CCC2(F)F)cc1 (racemic) | 6.19 | 6.74 | 88 | –
Fc1cccc(CCC2CN(Cc3c[nH]c4cc(Cl)ccc34)CCC2(F)F)c1 (racemic) | 6.80 | 7.36 | 94 | –
COc1ccc2c(CN3CCC(F)(F)C(CCc4ccccc4OC)C3)c[nH]c2c1 (racemic) | 6.43 | 7.00 | 76 | –
COc1ccc(CCC2CN(Cc3c[nH]c4cc(OC)ccc34)CCC2(F)F)cc1 (racemic) | 6.37 | 6.92 | 93 | –
FC1(F)CCN(Cc2ncn3ccccc23)CC1CCc1ccccc1 (racemic) | 6.92 | 7.47 | 90 | inhibition [11]: < 50%; inhibition [12]: < 50%; inhibition [13]: < 50%; inhibition [14]: < 50%; inhibition [15]: < 50%
FC1(F)CCN(Cc2ccc(Cl)cc2)CC1CCc1ccccc1 (racemic) | 6.12 | 6.68 | 80 | –
COc1ccc(CCC2CN(Cc3c[nH]c4cc(F)ccc34)CCC2(F)F)cc1 (racemic) | 6.32 | 6.89 | 91 | –
COc1ccc(CN2CCC(F)(F)C(CCc3ccccc3)C2)cc1F (racemic) | 6.96 | 7.51 | 88 | –
Fc1ccc(CCC2CN(Cc3ccc(Cl)cc3)CCC2(F)F)cc1 (racemic) | 7.19 | 7.75 | 95 | –
COc1ccccc1CCC1CN(Cc2c[nH]c3cc(F)ccc23)CCC1(F)F (racemic) | 6.77 | 7.32 | 94 | –
COc1ccc2[nH]cc(CN3CCC(F)(F)C(CCc4ccccc4)C3)c2c1 (racemic) | 6.14 | 6.70 | 91 | inhibition [11]: < 50%; inhibition [12]: < 50%; inhibition [13]: < 50%; inhibition [14]: 52%; inhibition [15]: < 50%

Continued, in another order:

pIC50 [1] | SMILES | pKi [1] | inhibition [7] [%] | further results
7.23 | Fc1ccc2[nH]cc(CN3CCC(F)(F)[C@H](CCc4ccccc4)C3)c2c1 | 7.79 | – | inhibition [10]: 66%
6.31 | Fc1ccc2c(CN3CCC(F)(F)[C@@H](CCc4ccccc4F)C3)c[nH]c2c1 | 6.85 | – | inhibition [11]: < 50%; inhibition [12]: 57%; inhibition [13]: < 50%; inhibition [14]: < 50%; inhibition [15]: 54%; inhibition [10]: 66%
6.28 | COc1ccc2c(CN3CCC(F)(F)[C@@H](CCc4cccc(F)c4)C3)c[nH]c2c1 | 6.82 | – | inhibition [10]: 62%
7.06 | COc1ccc2cc(CN3CCC(F)(F)[C@H](CCc4ccccc4)C3)c(OC)nc2c1 | 7.62 | – | inhibition [10]: 53%
7.35 | COc1ccc2c(CN3CCC(F)(F)C(CCc4cccc(F)c4)C3)c[nH]c2c1 (racemic) | 7.90 | 93 | –
6.52 | Cc1ccc(CN2CCC(F)(F)C(CCc3ccccc3)C2)cc1C (racemic) | 7.09 | 85 | inhibition [11]: < 20%; inhibition [12]: < 20%; inhibition [13]: < 20%; inhibition [14]: < 20%; inhibition [15]: < 20%
7.68 | COc1ccc2c(CN3CCC(F)(F)C(CCc4ccccc4F)C3)c[nH]c2c1 (racemic) | 8.23 | 95 | inhibition [11]: < 50%; inhibition [12]: < 50%; inhibition [13]: < 50%; inhibition [14]: 66%; inhibition [15]: 80%
7.46 | Fc1ccc(CCC2CN(Cc3ncn4ccccc34)CCC2(F)F)cc1 (racemic) | 8.01 | 97 | inhibition [11]: < 50%; inhibition [12]: < 50%; inhibition [13]: < 50%; inhibition [14]: < 50%; inhibition [15]: < 50%
6.64 | COc1ccccc1CCC1CN(Cc2c[nH]c3cc(Cl)ccc23)CCC1(F)F (racemic) | 7.19 | 94 | –
6.26 | COc1cccc(CCC2CN(Cc3c[nH]c4cc(OC)ccc34)CCC2(F)F)c1 (racemic) | 6.82 | 89 | –
7.43 | COc1ccc2c(CN3CCC(F)(F)C(CCc4ccc(F)cc4)C3)c[nH]c2c1 (racemic) | 7.99 | 96 | –
7.60 | Fc1ccc(CCC2CN(Cc3c[nH]c4cc(F)ccc34)CCC2(F)F)cc1 (racemic) | 8.15 | 94 | –
6.29 | CSc1ccc(CN2CCC(F)(F)C(CCc3ccccc3)C2)cc1 (racemic) | 6.85 | 93 | –
6.10 | FC1(F)CCN(Cc2ccc3ccccc3c2)CC1CCc1ccccc1 (racemic) | 6.66 | 80 | –
7.26 | Fc1ccccc1CCC1CN(Cc2c[nH]c3cc(Cl)ccc23)CCC1(F)F (racemic) | 7.82 | 96 | inhibition [11]: < 50%; inhibition [12]: < 50%; inhibition [13]: < 50%; inhibition [14]: 57%; inhibition [15]: 69%
6.37 | COc1ccc(CN2CCC(F)(F)C(CCc3ccccc3)C2)cc1 (racemic) | 6.92 | 87 | –
6.52 | FC1(F)CCN(Cc2cccc3cc[nH]c23)CC1CCc1ccccc1 (racemic) | 7.08 | 88 | –
6.64 | COc1ccccc1CCC1CN(Cc2ccc(Cl)cc2)CCC1(F)F (racemic) | 7.20 | 75 | –
